The text below walks through data of patent US20230391772A1, “METHODS AND COMPOSITIONS FOR TARGETED PROTEIN DEGRADATION” (Ranok Therapeutics (Hangzhou) Co. Ltd., priority 2020, published 2023).

SMILES strings stand for the structures.

In assay [1] the target is T1, HSP90a protein (Homo sapiens, UniProt P07900).
T1 construct: purchased BPS Bioscience 50298
The experiment in a line: HSP90α-binding fluorescent polarization (FP) assay, BODIPY-labeled RNK04010 probe. The following applies: FP competition with RNK04010 (BODIPY-labeled), 5 nM, 300 min at 25° C. Put shortly:
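Compound dilutions (20 μM to 5.2 nM, 2.5-fold) are combined with 5 nM final labeled probe, and HSP90a N-terminal protein is added last. Plates are shaken briefly and held at 25° C for 120 min (FITC-geldanamycin) or 300 min (BODIPY-RNK04010), then FP is measured.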

Assay [2] concerns NCI-H358 human non-small cell lung cancer. As to the kind of experiment: NCI-H358 CCK-8 proliferation assay. The assay is classed as cell-based. The following applies: NCI-H358 cells, 72 hr. The procedure: The following cancer cell lines were employed: BT-474 human breast carcinoma (ATCC, #HTB-20); MIA PaCa-2 human pancreatic carcinoma [2 copies KRAS(G12C)](ATCC, #CRL-1420); NCI-H23 human non-small cell lung cancer [1 copy KRAS(G12C)](ATCC, #CRL-5800); NCI-H358 human non-small cell lung cancer [1 copy KRAS(G12C)](ATCC, #CRL-5807); LU65A human lung carcinoma (Pharmaron, Beijing, China). Cell lines were cultured essentially according to ATCC and Pharmaron recommendations.
Cancer Cell Line Proliferation (CCK-8) Assays
3-fold serial dilutions of each test compound were prepared ranging from 20 μM to 1.02 nM.
% Inhibition=100−(D−B)/(S−B)*100%. • S: Absorbance of cells treated with DMSO • D: Absorbance of compound-treated cells • B: Absorbance of medium with DMSO without cells
For orientation: Formazan colour is commonly taken as a measure of viable cells.

Regarding `C=CC(=O)N1CCN(c2nc(NCCC(=O)NCCOCCOc3ccc(-n4c(O)nnc4-c4cc(CC)c(O)cc4O)cc3)nc3c2CCN(c2cc(O)cc4ccccc24)C3)CC1` [Compound 6, 3-((4-(4-acryloylpiperazin-1-yl)-7-(3-hydroxynaphthalen-1-yl)-5,6,7,8-tetrahydropyrido[3,4-d]pyrimidin-2-yl)amino)-N-(2-(2-(4-(3-(5-ethyl-2,4-dihydroxyphenyl)-5-hydroxy-4H-1,2,4-triazol-4-yl)phenoxy)ethoxy)ethyl)propanamide, trifluoroacetic acid], in assay [1], the IC50 is greater than 1000 nM. This compound also had an EC50 in assay [2] greater than 1000 nM.

`C=CC(=O)N1CCN(c2nc(NCCC(=O)NCc3ccc(-n4c(O)nnc4-c4cc(C(C)C)c(O)cc4O)cc3)nc3c2CCN(c2cc(O)cc4ccccc24)C3)CC1` [Compound 7, 3-((4-(4-acryloylpiperazin-1-yl)-7-(3-hydroxynaphthalen-1-yl)-5,6,7,8-tetrahydropyrido[3,4-d]pyrimidin-2-yl)amino)-N-(4-(3-(2,4-dihydroxy-5-isopropylphenyl)-5-hydroxy-4H-1,2,4-triazol-4-yl)benzyl)propanamide, trifluoroacetic acid] yielded an IC50 in assay [1] of 100 to 1000 nM. The compound further yielded an EC50 in assay [2] greater than 1000 nM.

Consider `C=CC(=O)N1CCN(c2nc(NCCC(=O)N3CCC(CN4CCN(Cc5ccc(-n6c(O)nnc6-c6cc(CC)c(O)cc6O)cc5F)CC4)CC3)nc3c2CCN(c2cc(O)cc4ccccc24)C3)CC1` [Compound 8, 1-(4-(2-((3-(4-((4-(4-(3-(5-ethyl-2,4-dihydroxyphenyl)-5-hydroxy-4H-1,2,4-triazol-4-yl)-2-fluorobenzyl)piperazin-1-yl)methyl)piperidin-1-yl)-3-oxopropyl)amino)-7-(3-hydroxynaphthalen-1-yl)-5,6,7,8-tetrahydropyrido[3,4-d]pyrimidin-4-yl)piperazin-1-yl)prop-2-en-1-one, trifluoroacetic acid], for which the IC50 in assay [1] lay within 100 to 1000 nM. The compound further registered an EC50 in assay [2] of 100 to 1000 nM.

Turning to `C=CC(=O)N1CCN(C2CN(c3cc(O)cc4ccccc34)Cc3nc(NCCC(=O)NCCOCCOCCOc4ccc(-n5c(O)nnc5-c5cc(C(C)C)c(O)cc5O)cc4)ncc32)CC1` (stereo not shown) [Compound 9, 3-((5-(4-acryloylpiperazin-1-yl)-7-(3-hydroxynaphthalen-1-yl)-5,6,7,8-tetrahydropyrido[3,4-d]pyrimidin-2-yl)amino)-N-(2-(2-(2-(4-(3-(2,4-dihydroxy-5-isopropylphenyl)-5-hydroxy-4H-1,2,4-triazol-4-yl)phenoxy)ethoxy)ethoxy)ethyl)propanamide, trifluoroacetic acid], the IC50 in assay [1] lay in the range of 100 to 1000 nM. This compound showed an EC50 in assay [2] greater than 1000 nM.

In assay [1], `C=CC(=O)N1CCN(c2nc(NCCC(=O)N3CCC(CN4CCC(Cc5ccc(-n6c(O)nnc6-c6cc(C(C)C)c(O)cc6O)cc5)CC4)CC3)nc3c2CCN(c2cc(O)cc4ccccc24)C3)CC1` [Compound 12, 1-(4-(2-((3-(4-((4-(4-(3-(2,4-dihydroxy-5-isopropylphenyl)-5-hydroxy-4H-1,2,4-triazol-4-yl)benzyl)piperidin-1-yl)methyl)piperidin-1-yl)-3-oxopropyl)amino)-7-(3-hydroxynaphthalen-1-yl)-5,6,7,8-tetrahydropyrido[3,4-d]pyrimidin-4-yl)piperazin-1-yl)prop-2-en-1-one, trifluoroacetic acid] returned an IC50 of 100 to 1000 nM. For the same compound, the EC50 in assay [2] is greater than 1000 nM.

In assay [1], `C=CC(=O)N1CCN(c2nc(NCCC(=O)N3CCC(CN4CCN(Cc5ccc(-n6c(O)nnc6-c6ccc(O)cc6O)cc5)CC4)CC3)nc3c2CCN(c2cc(O)cc4ccccc24)C3)CC1` [Compound 13, 1-(4-(2-((3-(4-((4-(4-(3-(2,4-dihydroxyphenyl)-5-hydroxy-4H-1,2,4-triazol-4-yl)benzyl)piperazin-1-yl)methyl)piperidin-1-yl)-3-oxopropyl)amino)-7-(3-hydroxynaphthalen-1-yl)-5,6,7,8-tetrahydropyrido[3,4-d]pyrimidin-4-yl)piperazin-1-yl)prop-2-en-1-one, trifluoroacetic acid] had an IC50 greater than 1000 nM. This compound yielded an EC50 in assay [2] greater than 1000 nM.

The compound `C=CC(=O)N1CCN(c2nc(NCCC(=O)NCCOCCOCCN[C@@H](C)C(=O)N[C@H](C(=O)N3CCC[C@H]3C(=O)Nc3snnc3-c3ccccc3)C3CCCCC3)nc3c2CCN(c2cc(O)cc4ccccc24)C3)CC1` [Compound 20, (S)-1-((2S,5S)-18-((4-(4-acryloylpiperazin-1-yl)-7-(3-hydroxynaphthalen-1-yl)-5,6,7,8-tetrahydropyrido[3,4-d]pyrimidin-2-yl)amino)-2-cyclohexyl-5-methyl-4,16-dioxo-9,12-dioxa-3,6,15-triazaoctadecanoyl)-N-(4-phenyl-1,2,3-thiadiazol-5-yl)pyrrolidine-2-carboxamide, trifluoroacetic acid] displayed an IC50 in assay [1] greater than 1000 nM. In assay [2], this compound registered an EC50 greater than 1000 nM.

Consider `CC(=O)N1CCN(c2nc(NCCC(=O)NCCc3ccc(-n4c(O)nnc4-c4cc(C(C)C)c(O)cc4O)cc3)nc3c2CCN(c2cc(O)cc4ccccc24)C3)CC1` [Compound 22, 3-((4-(4-acetylpiperazin-1-yl)-7-(3-hydroxynaphthalen-1-yl)-5,6,7,8-tetrahydropyrido[3,4-d]pyrimidin-2-yl)amino)-N-(4-(3-(2,4-dihydroxy-5-isopropylphenyl)-5-hydroxy-4H-1,2,4-triazol-4-yl)phenethyl)propanamide, trifluoroacetic acid], for which the IC50 in assay [1] was less than 100 nM. For the same compound, in assay [2], the EC50 was greater than 1000 nM.

As for `CC(=O)N1CCN(c2nc(NCCC(=O)N3CCN(Cc4ccc(-n5c(O)nnc5-c5cc(C(C)C)c(O)cc5O)cc4)CC3)nc3c2CCN(c2cc(O)cc4ccccc24)C3)CC1` [Compound 26, 3-((4-(4-acetylpiperazin-1-yl)-7-(3-hydroxynaphthalen-1-yl)-5,6,7,8-tetrahydropyrido[3,4-d]pyrimidin-2-yl)amino)-1-(4-(4-(3-(2,4-dihydroxy-5-isopropylphenyl)-5-hydroxy-4H-1,2,4-triazol-4-yl)benzyl)piperazin-1-yl)propan-1-one, trifluoroacetic acid], the IC50 in assay [1] was in the range of 100 to 1000 nM. The compound further had an EC50 in assay [2] greater than 1000 nM.

The compound `C=CC(=O)N1CCN(c2nc(NCCC(=O)NCc3ccc(-n4c(O)nnc4-c4ccc(O)cc4O)cc3)nc3c2CCN(c2cc(O)cc4ccccc24)C3)CC1` [Compound 27, 3-((4-(4-acryloylpiperazin-1-yl)-7-(3-hydroxynaphthalen-1-yl)-5,6,7,8-tetrahydropyrido[3,4-d]pyrimidin-2-yl)amino)-N-(4-(3-(2,4-dihydroxyphenyl)-5-hydroxy-4H-1,2,4-triazol-4-yl)benzyl)propanamide, trifluoroacetic acid] yielded an IC50 in assay [1] greater than 1000 nM. The compound further displayed a half-maximal effective concentration (EC50) in assay [2] greater than 1000 nM.

In turn, `CC(=O)N1CCN(c2nc(NCCC(=O)N3CCC(Cc4ccc(-n5c(O)nnc5-c5cc(C(C)C)c(O)cc5O)cc4)CC3)nc3c2CCN(c2cc(O)cc4ccccc24)C3)CC1` [Compound 28, 3-((4-(4-acetylpiperazin-1-yl)-7-(3-hydroxynaphthalen-1-yl)-5,6,7,8-tetrahydropyrido[3,4-d]pyrimidin-2-yl)amino)-1-(4-(4-(3-(2,4-dihydroxy-5-isopropylphenyl)-5-hydroxy-4H-1,2,4-triazol-4-yl)benzyl)piperidin-1-yl)propan-1-one, trifluoroacetic acid] came in with an IC50 in assay [1] of 100 to 1000 nM. In assay [2], this compound yielded an EC50 greater than 1000 nM.

In assay [1], `CC(=O)N1CCN(c2nc(NCCC(=O)N3CCC(CN4CCC(Cc5ccc(-n6c(O)nnc6-c6cc(C(C)C)c(O)cc6O)cc5)CC4)CC3)nc3c2CCN(c2cc(O)cc4ccccc24)C3)CC1` [Compound 29, 3-((4-(4-acetylpiperazin-1-yl)-7-(3-hydroxynaphthalen-1-yl)-5,6,7,8-tetrahydropyrido[3,4-d]pyrimidin-2-yl)amino)-1-(4-((4-(4-(3-(2,4-dihydroxy-5-isopropylphenyl)-5-hydroxy-4H-1,2,4-triazol-4-yl)benzyl)piperidin-1-yl)methyl)piperidin-1-yl)propan-1-one, trifluoroacetic acid] showed an IC50 of 100 to 1000 nM. Moreover, the EC50 in assay [2] is greater than 1000 nM.

Turning to `CCC(=O)N1CCN(c2nc(NCCC(=O)NCc3ccc(-n4c(O)nnc4-c4cc(C)c(O)cc4O)cc3)nc3c2CCN(c2cc(O)cc4ccccc24)C3)CC1` [Compound 30, N-(4-(3-(2,4-dihydroxy-5-methylphenyl)-5-hydroxy-4H-1,2,4-triazol-4-yl)benzyl)-3-((7-(3-hydroxynaphthalen-1-yl)-4-(4-propionylpiperazin-1-yl)-5,6,7,8-tetrahydropyrido[3,4-d]pyrimidin-2-yl)amino)propanamide, trifluoroacetic acid], the IC50 in assay [1] is greater than 1000 nM. Further, the EC50 in assay [2] is greater than 1000 nM.

In assay [1], `CCC(=O)N1CCN(c2nc(NCCC(=O)NCc3ccc(-n4c(O)nnc4-c4ccc(O)cc4O)cc3)nc3c2CCN(c2cc(O)cc4ccccc24)C3)CC1` [Compound 31, N-(4-(3-(2,4-dihydroxyphenyl)-5-hydroxy-4H-1,2,4-triazol-4-yl)benzyl)-3-((7-(3-hydroxynaphthalen-1-yl)-4-(4-propionylpiperazin-1-yl)-5,6,7,8-tetrahydropyrido[3,4-d]pyrimidin-2-yl)amino)propanamide, trifluoroacetic acid] returned an IC50 greater than 1000 nM. Further, the EC50 in assay [2] is greater than 1000 nM.

As a reminder, the IC50 is the concentration that gives 50% inhibition. Read a high IC50 as a need for much substance. As a reminder, the EC50 is the midpoint of the concentration-response curve. Lower therefore signals an effect from little substance.
